Test results from patent publication US8791132B2, “Compounds and methods for treatment of hypertension” (Medivation Technologies, Inc., priority 2011, dated 2014).
Where two headings read alike, the source gives them in different places.

Tests used:
[1] = target: T1, rat adrenergic α1B receptor (Rattus norvegicus, UniProt P15823); assay: Radioligand binding, adrenergic α1B ([3H]Prazosin); conditions: for inhibition at 0.03 µM: read-out: Percentage inhibition of ligand binding, Adrenergic α1B (0.03 μM), compound at 0.03 μM
T1 construct: rat adrenergic α1B receptor obtained from Wistar Rat liver; from tissue; host or cells: Wistar rat liver
T1 sequence (P15823 1-515): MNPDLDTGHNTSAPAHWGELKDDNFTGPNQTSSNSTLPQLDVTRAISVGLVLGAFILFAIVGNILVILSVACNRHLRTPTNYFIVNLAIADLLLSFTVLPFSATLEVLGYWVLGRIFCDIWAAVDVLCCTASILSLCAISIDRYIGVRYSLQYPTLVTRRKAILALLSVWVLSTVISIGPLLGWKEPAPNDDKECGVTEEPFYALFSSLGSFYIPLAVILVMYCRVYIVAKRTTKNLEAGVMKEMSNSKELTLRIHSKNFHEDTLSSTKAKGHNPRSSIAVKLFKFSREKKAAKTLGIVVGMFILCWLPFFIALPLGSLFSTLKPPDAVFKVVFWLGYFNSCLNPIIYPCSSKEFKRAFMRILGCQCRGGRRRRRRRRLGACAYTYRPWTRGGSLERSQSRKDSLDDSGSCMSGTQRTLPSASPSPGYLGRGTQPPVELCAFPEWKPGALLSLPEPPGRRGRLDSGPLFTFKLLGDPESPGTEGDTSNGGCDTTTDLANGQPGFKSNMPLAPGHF
How it was run: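 Filter binding with Wistar rat liver α1B preparation: test compound plus 0.25 nM [3H]prazosin, 1 h at 25° C in modified Tris-HCl buffer pH 7.4.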

[2] = target: T2, human recombinant adrenergic α2B receptor (Homo sapiens, UniProt P18089); assay: Radioligand binding, adrenergic α2B ([3H]Rauwolscine); conditions: for inhibition at 0.03 µM: read-out: Percentage inhibition of ligand binding, Adrenergic α2B (0.03 μM), compound at 0.03 μM
T2 construct: expressed in transfected cells; host or cells: CHO-K1
T2 sequence (P18089 1-450): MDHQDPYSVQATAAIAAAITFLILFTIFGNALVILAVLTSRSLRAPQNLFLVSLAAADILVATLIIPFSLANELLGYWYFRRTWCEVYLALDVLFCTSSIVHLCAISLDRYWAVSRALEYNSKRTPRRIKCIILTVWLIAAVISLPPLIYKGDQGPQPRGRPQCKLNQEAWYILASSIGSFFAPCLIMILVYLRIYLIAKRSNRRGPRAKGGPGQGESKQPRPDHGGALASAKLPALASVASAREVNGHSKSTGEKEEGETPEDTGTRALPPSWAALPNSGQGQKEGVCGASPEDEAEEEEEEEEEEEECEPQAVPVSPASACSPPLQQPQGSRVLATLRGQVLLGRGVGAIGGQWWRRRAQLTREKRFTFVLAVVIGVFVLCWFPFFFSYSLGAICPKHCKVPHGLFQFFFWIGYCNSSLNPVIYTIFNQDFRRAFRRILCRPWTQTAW
How it was run: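 Readout: percent inhibition of specific [3H]Rauwolscine binding, measured by filtration and counting. Conditions: CHO-K1 cell-expressed receptor, 2.5 nM radioligand, 60 min, 25° C, Tris-HCl pH 7.4 buffer with MgCl2, EDTA, BSA. Non-specific binding: 10 μM Prazosin.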

[3] = target: T3, human recombinant adrenergic α2A receptor (Homo sapiens, UniProt P08913); assay: Radioligand binding, adrenergic α2A ([3H]MK-912)
T3 construct: expressed in transfected cells; host or cells: insect Sf9 cells
T3 sequence (P08913 1-465): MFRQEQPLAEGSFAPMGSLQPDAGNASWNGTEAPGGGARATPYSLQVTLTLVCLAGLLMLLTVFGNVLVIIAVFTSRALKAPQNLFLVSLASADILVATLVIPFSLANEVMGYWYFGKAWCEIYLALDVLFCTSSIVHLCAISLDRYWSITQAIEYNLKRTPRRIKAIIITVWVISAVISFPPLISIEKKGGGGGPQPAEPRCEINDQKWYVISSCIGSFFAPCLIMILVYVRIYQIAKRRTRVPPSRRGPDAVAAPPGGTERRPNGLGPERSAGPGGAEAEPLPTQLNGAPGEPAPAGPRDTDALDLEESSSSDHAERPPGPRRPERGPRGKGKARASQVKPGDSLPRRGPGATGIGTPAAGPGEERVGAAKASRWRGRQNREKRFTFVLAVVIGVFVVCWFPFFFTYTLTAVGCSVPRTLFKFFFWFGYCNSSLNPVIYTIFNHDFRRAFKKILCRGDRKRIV
How it was run: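 Receptor expressed in insect Sf9 cells, assayed in 50 mM Tris-HCl pH 7.4 with 12.5 mM MgCl2 and 2 mM EDTA. Compounds incubated with 1 nM [3H]MK-912 for 60 min at 25 °C; nonspecific binding defined with 10 μM WB-4101. Filter-bound radioactivity counted; values are percent inhibition of specific binding.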

[4] = target: T4, human recombinant adrenergic α1D receptor (Homo sapiens, UniProt P25100); assay: Radioligand binding, adrenergic α1D ([3H]Prazosin); conditions: for inhibition at 0.03 µM: read-out: Percentage inhibition of ligand binding, Adrenergic α1D (0.03 μM), compound at 0.03 μM
T4 construct: expressed in transfected cells; host or cells: HEK-293
T4 sequence (P25100 1-572): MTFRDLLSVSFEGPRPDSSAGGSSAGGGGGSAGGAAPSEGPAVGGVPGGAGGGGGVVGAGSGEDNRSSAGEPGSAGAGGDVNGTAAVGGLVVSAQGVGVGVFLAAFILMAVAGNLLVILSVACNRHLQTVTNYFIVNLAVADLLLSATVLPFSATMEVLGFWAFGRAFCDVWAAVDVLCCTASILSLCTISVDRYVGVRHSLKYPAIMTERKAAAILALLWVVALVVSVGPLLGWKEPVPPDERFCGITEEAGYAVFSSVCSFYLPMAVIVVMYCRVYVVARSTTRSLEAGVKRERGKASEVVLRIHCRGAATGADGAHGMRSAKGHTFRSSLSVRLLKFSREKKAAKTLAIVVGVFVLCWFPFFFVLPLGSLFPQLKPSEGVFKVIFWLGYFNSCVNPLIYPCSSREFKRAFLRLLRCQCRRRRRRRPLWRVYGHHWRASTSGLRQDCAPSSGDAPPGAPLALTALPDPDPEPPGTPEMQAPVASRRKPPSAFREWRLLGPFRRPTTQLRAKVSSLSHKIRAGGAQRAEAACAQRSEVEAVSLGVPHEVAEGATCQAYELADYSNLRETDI
Procedure: Compounds were incubated with 0.6 nM [3H]Prazosin for 60 min at 25° C. Non-specific binding was estimated in the presence of 10 μM phentolamine. Receptor proteins were filtered and washed, the filters were then counted to determine [3H]Prazosin specifically bound. […] Biochemical assay results are presented as the percent inhibition of specific binding in Table B1.

[5] = [3H]Prazosin, repeat datapoints each shown
[6] = [3H]Rauwolscine, repeat datapoints each shown
[7] = 0.1 μM compound, read-out: Percentage inhibition of ligand binding, Adrenergic α1B
[8] = 0.1 μM compound, read-out: Percentage inhibition of ligand binding, Adrenergic α2B
[9] = 0.1 μM compound, read-out: Percentage inhibition of ligand binding, Adrenergic α2A
[10] = 0.1 μM compound, read-out: Percentage inhibition of ligand binding, Adrenergic α1D
[11] = read-out: Percentage inhibition of ligand binding, Adrenergic α1B (0.1 μM), compound at 0.1 μM, [3H]Prazosin, repeat datapoints each shown
[12] = read-out: Percentage inhibition of ligand binding, Adrenergic α2B (0.1 μM), compound at 0.1 μM, [3H]Rauwolscine, repeat datapoints each shown
[13] = read-out: Percentage inhibition of ligand binding, Adrenergic α2A (0.1 μM), compound at 0.1 μM, [3H]MK-912, repeat datapoints each shown
[14] = read-out: Percentage inhibition of ligand binding, Adrenergic α1D (0.1 μM), compound at 0.1 μM, [3H]Prazosin, repeat datapoints each shown

SMILES	inhibition at 0.1 µM [1, 7]	inhibition at 0.1 µM [2, 8]	inhibition at 0.1 µM [3, 9]	inhibition at 0.1 µM [4, 10]	also measured
COc1ccc(CCn2c3c(c4cc(C)ccc42)CN(C)CC3)cc1 [compound 218]					inhibition at 0.03 µM [1, 5]: 79%; inhibition at 0.03 µM [2, 6]: 110%; inhibition at 0.03 µM ([3]; read-out: Percentage inhibition of ligand binding, Adrenergic α2A (0.03 μM), compound at 0.03 μM, [3H]MK-912, repeat datapoints each shown): 85%; inhibition at 0.03 µM [4, 5]: 60%
Cc1ccc2c(c1)c1c(n2CC(C)(F)c2ccncc2)CCN(C)C1 (stereo not shown) [compound 102]					inhibition at 0.1 µM [1, 11]: 40%; inhibition at 0.1 µM [2, 12]: 77%; inhibition at 0.1 µM [3, 13]: 21%; inhibition at 0.1 µM [4, 14]: 21%
Cc1ccc2c(c1)c1c(n2CCc2ccc(Cl)cc2)CCN(C)C1 [compound 184, 5-(4-Chlorophenethyl)-2,3,4,5-tetrahydro-2,8-dimethyl-1H-pyrido[4,3-b]indole]					inhibition at 0.03 µM [1, 5]: 60%; inhibition at 0.03 µM [2, 6]: 95%; Ki [3]: 184 nM; inhibition at 0.1 µM [3, 13]: 93%; inhibition at 0.03 µM [4, 5]: 24%
Cc1ccc2c(c1)c1c(n2CCc2ccccn2)CCN(C)C1 [compound 84]					inhibition at 0.1 µM ([1]; compound at 0.1 μM, [3H]Prazosin, repeat assays, each datapoint shown, read-out: Percentage inhibition of ligand binding, Adrenergic α1B): 69%; inhibition at 0.1 µM ([2]; compound at 0.1 μM, [3H]Rauwolscine, repeat assays, each datapoint shown, read-out: Percentage inhibition of ligand binding, Adrenergic α2B): 84%; inhibition at 0.1 µM ([3]; compound at 0.1 μM, [3H]MK-912, repeat assays, each datapoint shown, read-out: Percentage inhibition of ligand binding, Adrenergic α2A): 27%; inhibition at 0.1 µM ([4]; compound at 0.1 μM, [3H]Prazosin, repeat assays, each datapoint shown, read-out: Percentage inhibition of ligand binding, Adrenergic α1D): 36%
Cc1cnc2c(c1)c1c(n2CCc2ccc(C(F)(F)F)nc2)CCN(C)C1 [II-119, 3,6-dimethyl-9-(2-(6-(trifluoromethyl)pyridin-3-yl)ethyl)-6,7,8,9-tetrahydro-5H-pyrrolo[2,3-b:4,5-c′]dipyridine]					inhibition at 0.1 µM [1, 11]: 23%; inhibition at 0.1 µM [2, 12]: 27%; inhibition at 0.1 µM [3, 13]: -4%; inhibition at 0.1 µM [4, 14]: 53%
Cc1ccc2c(c1)c1c(n2C=C(c2ccccc2)c2ccccc2)CCN(C)C1 [compound 267]	7%	85%	63%	26%	
Cc1ccc(C(C)(O)Cn2c3c(c4cc(Cl)ccc42)CN(C)CC3)cn1 (stereo not shown) [compound 93]					Percentage inhibition of ligand binding, Adrenergic α1B (0.1 μM) ([1]; compound at 0.1 μM, [3H]Prazosin, repeat datapoints each shown, 0.1 µM): 25%; inhibition at 0.1 µM [2, 12]: 87%; Percentage inhibition of ligand binding, Adrenergic α2A (0.1 μM) ([3]; compound at 0.1 μM, [3H]MK-912, repeat datapoints each shown, 0.1 µM): 21%; inhibition at 0.1 µM [4, 14]: 6%
C/C(=C\n1c2c(c3cc(C)ccc31)CNCC2)c1ccncc1 [compound 103]					inhibition at 0.1 µM [1, 11]: 49%; inhibition at 0.1 µM [2, 12]: 80%; inhibition at 0.1 µM [3, 13]: 19%; inhibition at 0.1 µM [4, 14]: 20%
C/C(=C\n1c2c(c3cc(C)ccc31)CN(C)CC2)C1CCCCC1 [compound 261]	50%	84%	84%	30%	
CC(=O)Nc1ccc(/C(C)=C/n2c3c(c4cc(C)ccc42)CN(C)CC3)cn1 [compound 112]					inhibition at 0.1 µM [1, 11]: 44%; inhibition at 0.1 µM [2, 12]: 79%; inhibition at 0.1 µM [3, 13]: 26%; inhibition at 0.1 µM [4, 14]: 40%
Cc1ccc2c(c1)c1c(n2C#Cc2cccc(N(C)C)c2)CCN(C)C1 [compound 256]	47%	58%	55%	23%	

Now from value to molecule, other results behind:

inhibition at 0.1 µM [1, 7]	inhibition at 0.1 µM [2, 8]	inhibition at 0.1 µM [3, 9]	inhibition at 0.1 µM [4, 10]	SMILES	also measured
73%	93%	96%	82%	C/C(=C/n1c2c(c3cc(C)ccc31)CN(C)CC2)c1cc2ccccc2s1 [compound 293]	
93%	45%	90%	81%	Cc1ccc2c(c1)c1c(n2/C=C/c2cccc3cnccc23)CCN(C)C1 [compound 316, 5-(2-isoquinolin-5-yl-vinyl)-2,8-dimethyl-2,3,4,5-tetrahydro-1H-pyrido[4,3-b]indole]	
-5%	-4%	58%	4%	Cc1cc(-c2sccc2C)c2c(c1)c1c(n2CCc2ccc(C)nc2)CCN(C)C1 [compound 327]	
57%	94%	90%	39%	CSc1cccc(/C(C)=C/n2c3c(c4cc(C)ccc42)CN(C)CC3)c1 [compound 268]	
20%	70%	60%	33%	C/C(=C\n1c2c(c3cc(Cl)ccc31)CN(C)CC2)c1cccc(S(C)(=O)=O)c1 [compound 296]	
15%	81%	79%	27%	Cc1csc(C2=C(n3c4c(c5cc(C)ccc53)CN(C)CC4)CCC2)c1 [compound 304, 2,8-dimethyl-5-(2-(4-methylthiophen-2-yl)cyclopent-1-enyl)-2,3,4,5-tetrahydro-1H-pyrido[4,3-b]indole]	
53%	99%	53%	70%	C/C(=C\n1c2c(c3cc(C)ccc31)CN(C)CC2)c1ccc(C(F)(F)F)nc1 [compound 331]	
